Experimental data as given in patent US8192989B2, “Solid surface for biomolecule delivery and high-throughput assay” (Nitto Denko Corporation, priority 2003, dated 2012).

What was measured:
293 cells [1] = assay: Cytotoxicity assay - MTT assay after transfection; assay type: cell-based
Description: Glutamine (100 mmol/L) and different transfection reagents (NDT-CP-B-1, NDT-CP-1, Superfect and lipofectamine 2000) were diluted in 0.2% gelatin solution, and 25 μl of the solution containing Glutamine/transfection reagent/gelatin was added into a 96 well plate and allowed to air dry. Then 25 μl GFP plasmid solution in opti MEM (20.0 μg/ml) was added into each well and incubated at room temperature for 25 min. The dried plate was ready for use (FIG. 32).
In this experiment, 0.2% gelatin or 0.2% gelatin and 40.0 μg/ml laminin mixture was used for diluting transfection reagents NDT-CP-B-1, NDT-CP-1, NDT-LP-1 NDT-LP-2, Superfect and lipofectamine 2000, and 25 μl solution was added into 96 well plate. The amounts of NDT polymers used in each well were 8, 4 or 2 μg, respectively, the amounts of Superfect were 15, 7.5 and 3.8 μg/well respectively, and the amounts of lipofectamine 2000 were 2.5, 1.25 and 0.63 μg/well respectively. […] The transfection efficiency and cytotoxicity were analyzed by fluorescent microscope and MTT assay (FIG. 33).
The cytotoxicities of transfection reagents on mammalian cells were evaluated using 3-[4,5 dimethylthiazol-2-yl]-2,5-diphenyltetrazolium bromide (MTT) method. […] The absorbance of the solution was measured at 570 nm. Cell viabilities was calculated using the equation: Viability (%)={Abs570 (sample)/Abs570 (control)}×100 (FIG. 31).

293 cells [2] = assay: Effect of membrane disturbing peptide on PLL-laminin mediated gene transfer; assay type: cell-based; details: membrane disturbing peptide in PLL-laminin based transfectable surface, 96-well (FIG. 28)

## laminin
293 cells [1]; cell attaching reagent in transfection reagents-gelatin surface, with versus without laminin (FIG. 33)
  effect on cytotoxicity caused by transfection reagents and procedures: significantly improved cytotoxicity

## RRRQGTWLNPGFPPQSCGYATVTDARRR (Chemically synthesized peptide corresponding to viral envelope protein VSVG) [VSVG peptide]
293 cells [2]
  effect on transfection efficiency: significantly enhance transfection efficiency

## NC(=O)CC[C@H](N)C(=O)O [glutamine, Glutamine]
293 cells [1]; cytoreductive reagent added to transfectable surface, with versus without glutamine (FIG. 32)
  effect on transfection cytotoxicity: significantly improved transfection cytotoxicity
